Laboratory results: US20240067625A1, “SMALL-MOLECULE MODULATORS OF THE ORPHAN NUCLEAR RECEPTOR TLX” (priority 2020, published 2024)

Target: TLX LBD (Homo sapiens (Human), UniProt Q9Y466)
Assay: ALPHA screen assay for TLX LBD and coactivator peptide recruitment
Assay type: biochemical
Conditions: Table 3; for Average ALPHA signal at 200 μM (std. dev.): mean (std. dev.)
Description: Assays were performed according to the manufacturer's protocol (PerkinElmer, USA), with the following modifications: Ligands were tested for TLX-coactivator binding in 50 mM phosphate buffer, 150 mM NaCl, pH 7, 1 mM DTT and 100 μM CHAPS. Ligands were dissolved and diluted in DMSO as stocks and were prepared in assay buffer from the original stock in the 100% DMSO and added to the assay plate. Biotinylated SRC peptide and polyhistidine tagged TLX LBD were diluted in assay buffer, subsequently added to respective ALPHA beads, under low light. The plates were spun down, mixed with a shaker and incubated for 120 minutes and read on a TECAN Plate reader using the manufacturer's protocol.

Chain of TLX LBD (Q9Y466 155-383): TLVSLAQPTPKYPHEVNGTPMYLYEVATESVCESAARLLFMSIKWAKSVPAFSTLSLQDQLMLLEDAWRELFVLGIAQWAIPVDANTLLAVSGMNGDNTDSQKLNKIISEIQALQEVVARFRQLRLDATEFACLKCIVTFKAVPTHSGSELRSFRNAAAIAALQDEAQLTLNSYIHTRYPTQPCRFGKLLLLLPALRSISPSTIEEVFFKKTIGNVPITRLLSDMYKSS

| Compound | EC50 [nM] | Average ALPHA signal at 200 μM (std. dev.) |
| --- | --- | --- |
| CC(C)CCNc1ncccc1C(=O)N1CCN(Cc2ccccc2)C[C@@H]1CC(C)C [Compound 94] | 0.003 | 3.65 (0.10) |
| CC(C)CCNc1ncccc1C(=O)N1CCN(CCC2CCN(C(=O)OC(C)(C)C)CC2)C[C@@H]1C [Compound 41] | 0.00585 | 2.73 (0.13) |
| CC(C)CCNc1ncccc1C(=O)N1C[C@H](CC(=O)O)N(Cc2ccccc2)[C@H](C)C1 [Compound 67] |  | 0.97 (0.03) |
| CC(C)CNc1ncccc1C(=O)N1CCN(Cc2ccccc2)[C@@H](C)C1 [Compound 89] |  | 1.98 (0.05) |
| COC(=O)C[C@H]1CN(C(=O)c2cccnc2NCCC(C)C)C[C@@H](C)N1Cc1ccccc1 [Compound 63] | 0.0123 | 2.72 (0.05) |
| Cc1ccccc1CN1CCN(C(=O)c2cccnc2NCCC(C)C)[C@H](C)C1 [Compound 43] |  | 3.49 (0.17) |
| COC(=O)C[C@H]1CN(C(=O)c2cccnc2NCCC(C)C)C[C@H](C)N1Cc1ccccc1 [Compound 62] | 0.012 | 2.54 (0.08) |
| CC(C)CCNc1ncccc1C(=O)N1CCN(CCCc2ccccc2)C[C@H]1C [Compound 48] |  | 3.75 (0.31) |
| CC(C)Nc1ncccc1C(=O)N1CCN(Cc2ccccc2)[C@@H](C)C1 [Compound 90] |  | 1.57 (0.06) |
| COC(=O)C[C@@H]1[C@@H](C)N(Cc2ccccc2)CCN1C(=O)c1cccnc1NCCC(C)C [Compound 72] |  | 2.51 (0.10) |
| CC(C)CCNc1ncccc1C(=O)N1CCN(Cc2ccccn2)C[C@H]1C [Compound 46] |  | 0.86 (0.09) |
| Cc1cccc(CN2CCN(C(=O)c3cccnc3NCCC(C)C)[C@@H](C)C2)c1 [Compound 32] | 0.0143 | 3.85 (0.09) |
| CC(C)CCNc1ncccc1C(=O)N1C[C@H](C)N(Cc2ccccc2)C[C@@H]1CC(=O)O [Compound 81] |  | 1.15 (0.02) |
| Cc1cc(C(=O)N2CCN(C(c3ccccc3)c3ccccc3)CC2)nn1C [Compound 30, reference compound] | 0.0673 | 1.93 (0.08) |
| CC(C)CCNc1ncccc1C(=O)N1CCN(C)C[C@@H]1C [Compound 38] |  | 0.85 (0.06) |
| CC(C)CCNc1ncccc1C(=O)N1CCN(Cc2ccc3cnccc3c2)C[C@@H]1C [Compound 40] | 0.0529 | 2.48 (0.02) |
| CC(C)CCNc1ncccc1C(=O)N1C[C@H](C)N(Cc2ccccc2)C[C@H]1CC(=O)O [Compound 82] |  | 1.11 (0.02) |
| COC(=O)C[C@@H]1CN(C(=O)c2cccnc2NCCC(C)C)C[C@H](C)N1Cc1ccccc1 [Compound 61] | 0.0152 | 2.89 (0.07) |
| CC(C)CCNc1ncccc1C(=O)N1CCN(Cc2ccccc2)[C@H](C)[C@H]1CC(=O)O [Compound 80] |  | 1.11 (0.07) |
| CCCCN1CCN(C(=O)c2cccnc2NCCC(C)C)[C@@H](C)C1 [Compound 37] | 0.0335 | 2.30 (0.02) |
| CCCCCCN1CCN(C(=O)c2cccnc2NCCC(C)C)[C@@H](C)C1 [Compound 36] | 0.0126 | 8.78 (0.30) |

| Compound | EC50 [nM] | Average ALPHA signal at 200 μM (std. dev.) |
| --- | --- | --- |
| CC(C)CCNc1ncccc1C(=O)N1CCN(Cc2ccccc2C(=O)O)CC1 [Compound 58] |  | 1.30 (0.05) |
| COC(=O)c1ccc(CN2CCN(C(=O)c3cccnc3NCCC(C)C)CC2)cc1 [Compound 57] | 0.0745 | 2.54 (0.04) |
| COC(=O)C[C@H]1[C@H](C)N(Cc2ccccc2)CCN1C(=O)c1cccnc1NCCC(C)C [Compound 70] | 0.00485 | 2.63 (0.01) |
| CC(C)CCNc1ncccc1C(=O)N1CCN(Cc2ccc3cnccc3c2)C[C@H]1C [Compound 52] | 0.0261 | 2.03 (0.12) |
| Cc1ccc(CN2CCN(C(=O)c3cccnc3NCCC(C)C)[C@@H](C)C2)cc1 [Compound 33] | 0.0187 | 3.89 (0.21) |
| CC(C)CCNc1ncccc1C(=O)N1C[C@@H](CC(=O)O)N(Cc2ccccc2)[C@@H](C)C1 [Compound 65] |  | 0.99 (0.04) |
| CC(C)Nc1ncccc1C(=O)N1CCN(Cc2ccccc2)[C@H](C)C1 [Compound 85] |  | 1.48 (0.16) |
| CC(C)CCNc1ncccc1C(=O)N1C[C@@H](C)N(Cc2ccccc2)C[C@@H]1CC(=O)O [Compound 84] |  | 1.09 (0.01) |
| COc1cccc(CN2CCN(C(=O)c3cccnc3NCCC(C)C)[C@@H](C)C2)c1 [Compound 39] | 0.0276 | 3.19 (0.17) |
| COC(=O)C[C@@H]1CN(Cc2ccccc2)[C@H](C)CN1C(=O)c1cccnc1NCCC(C)C [Compound 75] | 0.00794 | 2.65 (0.04) |
| COc1cccc(CN2CCN(C(=O)c3cccnc3NCCC(C)C)[C@H](C)C2)c1 [Compound 51] | 0.0199 | 2.98 (0.10) |
| Cc1cccc(CN2CCN(C(=O)c3cccnc3NCCC(C)C)[C@H](C)C2)c1 [Compound 44] | 0.0124 | 3.28 (0.09) |
| COC(=O)C[C@@H]1[C@H](C)N(Cc2ccccc2)CCN1C(=O)c1cccnc1NCCC(C)C [Compound 69] | 0.0081 | 2.53 (0.08) |
| COC(=O)C[C@H]1[C@@H](C)N(Cc2ccccc2)CCN1C(=O)c1cccnc1NCCC(C)C [Compound 71] |  | 2.47 (0.03) |
| CC(C)CCNc1ncccc1C(=O)N1CCN(Cc2cccc(C(=O)O)c2)CC1 [Compound 59] |  | 1.25 (0.09) |
| CC(C)CCNc1ncccc1C(=O)N1C[C@H](CC(=O)O)N(Cc2ccccc2)[C@@H](C)C1 [Compound 66] |  | 0.96 (0.03) |
| C[C@@H]1CN(C(=O)c2cccnc2NC2CC2)CCN1Cc1ccccc1 [Compound 86] |  | 1.35 (0.04) |
| CC(C)CCNc1ncccc1C(=O)N1CCN(Cc2ccccc2)[C@@H](C)[C@H]1CC(=O)O [Compound 77] |  | 1.09 (0.06) |
| CC(C)CCNc1ncccc1C(=O)N1CCN(Cc2c[nH]c3ccccc23)C[C@H]1C [Compound 54] |  | 1.17 (0.06) |
| CCCCN1CCN(C(=O)c2cccnc2NCCC(C)C)[C@H](C)C1 [Compound 49] | 0.0332 | 3.09 (0.12) |
| CC(C)CCNc1ncccc1C(=O)N1C[C@@H](CC(=O)O)N(Cc2ccccc2)[C@H](C)C1 [Compound 68] |  | 1.02 (0.03) |

| Compound | EC50 [nM] | Average ALPHA signal at 200 μM (std. dev.) |
| --- | --- | --- |
| CNc1ncccc1C(=O)N1CCN(Cc2ccccc2)[C@@H](C)C1 [Compound 92] |  | 1.85 (0.10) |
| CC(C)CNc1ncccc1C(=O)N1CCN(Cc2ccccc2)[C@H](C)C1 [Compound 87] |  | 2.07 (0.03) |
| CC(C)CCNc1ncccc1C(=O)N1CCN(Cc2c[nH]c3ccccc23)C[C@@H]1C [Compound 42] |  | 0.96 (0.05) |
| CC(C)CCNc1ncccc1C(=O)N1CCN(Cc2ccccc2)[C@H](C)[C@@H]1CC(=O)O [Compound 79] |  | 1.23 (0.02) |
| COC(=O)c1ccccc1CN1CCN(C(=O)c2cccnc2NCCC(C)C)CC1 [Compound 55] | 0.0412 | 2.87 (0.07) |
| CC(C)CCNc1ncccc1C(=O)N1CCN(Cc2ccccn2)C[C@@H]1C [Compound 34] |  | 1.29 (0.05) |
| CC(C)CCNc1ncccc1C(=O)N1CCN(Cc2ccccc2)[C@@H](C)[C@@H]1CC(=O)O [Compound 78] |  | 1.16 (0.03) |
| CC(C)CCNc1ncccc1C(=O)N1CCN(C)C[C@H]1C [Compound 50] |  | 0.93 (0.05) |
| COC(=O)C[C@H]1CN(Cc2ccccc2)[C@@H](C)CN1C(=O)c1cccnc1NCCC(C)C [Compound 73] |  | 2.69 (0.07) |
| COC(=O)C[C@@H]1CN(Cc2ccccc2)[C@@H](C)CN1C(=O)c1cccnc1NCCC(C)C [Compound 74] | 0.00982 | 2.96 (0.08) |
| CC(C)CCNc1ncccc1C(=O)N1CCN(CCCc2ccccc2)C[C@@H]1C [Compound 35] | 0.0128 | 4.57 (0.38) |
| COC(=O)c1cccc(CN2CCN(C(=O)c3cccnc3NCCC(C)C)CC2)c1 [Compound 56] | 0.0442 | 2.74 (0.08) |
| Cc1ccccc1CN1CCN(C(=O)c2cccnc2NCCC(C)C)[C@@H](C)C1 [Compound 31] | 0.0138 | 4.52 (0.06) |
| CC(C)CCNc1ncccc1C(=O)N1CCN(Cc2ccc(C(=O)O)cc2)CC1 [Compound 60] |  | 1.06 (0.05) |
| CCCCCCN1CCN(C(=O)c2cccnc2NCCC(C)C)[C@H](C)C1 [Compound 47] | 0.0125 | 7.81 (0.45) |
| CNc1ncccc1C(=O)N1CCN(Cc2ccccc2)[C@H](C)C1 [Compound 88] |  | 2.17 (0.21) |
| COC(=O)C[C@@H]1CN(C(=O)c2cccnc2NCCC(C)C)C[C@@H](C)N1Cc1ccccc1 [Compound 64] | 0.00858 | 2.26 (0.07) |
| CC(C)CCNc1ncccc1C(=O)N1C[C@@H](C)N(Cc2ccccc2)C[C@H]1CC(=O)O [Compound 83] |  | 1.02 (0.03) |
| Cc1ccc(CN2CCN(C(=O)c3cccnc3NCCC(C)C)[C@H](C)C2)cc1 [Compound 45] | 0.0113 | 3.50 (0.06) |
